Columns and labels:
Type in all cases: biochemical
[1] = target: T1, human Yes1 enzyme (Homo sapiens, UniProt P07947); experiment: Yes1 enzyme inhibitory activity (time-resolved fluorometry, biotinylated peptide phosphorylation); details: read-out: YES_IC50
T1 construct: made in house
Method in brief: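 Inhibition was expressed against a compound-free control to give IC50, using TR-FRET read-out (Eu-cryptate anti-pTyr antibody, streptavidin-XL665).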

[2] = target: T2, human Src enzyme (Homo sapiens, UniProt P12931); experiment: Src enzyme inhibitory activity (time-resolved fluorometry, biotinylated peptide phosphorylation); details: read-out: SRC_IC50
T2 construct: purchased Carna Biosciences, Inc. 08-173
T2 sequence (P12931 whole entry): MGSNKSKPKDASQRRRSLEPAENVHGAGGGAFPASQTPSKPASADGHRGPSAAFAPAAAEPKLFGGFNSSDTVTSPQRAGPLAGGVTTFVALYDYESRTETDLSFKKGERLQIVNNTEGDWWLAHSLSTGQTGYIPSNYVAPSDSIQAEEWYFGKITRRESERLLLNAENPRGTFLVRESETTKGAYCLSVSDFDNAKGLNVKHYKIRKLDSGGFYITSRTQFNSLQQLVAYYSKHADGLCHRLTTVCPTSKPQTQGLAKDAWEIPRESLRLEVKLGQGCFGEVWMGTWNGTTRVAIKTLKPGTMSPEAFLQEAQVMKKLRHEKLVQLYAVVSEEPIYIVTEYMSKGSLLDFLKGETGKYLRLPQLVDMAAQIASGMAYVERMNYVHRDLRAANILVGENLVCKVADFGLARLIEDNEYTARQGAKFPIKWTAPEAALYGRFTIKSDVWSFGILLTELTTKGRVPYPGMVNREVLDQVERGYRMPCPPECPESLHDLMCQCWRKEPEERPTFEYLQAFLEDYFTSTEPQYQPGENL
Method in brief: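 Compounds were tested for blocking tyrosine phosphorylation of a biotinylated peptide substrate by recombinant human Src. Phosphorylated product was quantified by time-resolved fluorometry using europium cryptate and XL665 conjugates, and IC50 was calculated against the compound-free control.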

[3] = target: T3, human Lck enzyme (Homo sapiens, UniProt P06239); experiment: Lck enzyme inhibitory activity (time-resolved fluorometry, biotinylated peptide phosphorylation); details: read-out: LCK_IC50
T3 construct: purchased Carna Biosciences, Inc. 08-170
T3 sequence (P06239 whole entry): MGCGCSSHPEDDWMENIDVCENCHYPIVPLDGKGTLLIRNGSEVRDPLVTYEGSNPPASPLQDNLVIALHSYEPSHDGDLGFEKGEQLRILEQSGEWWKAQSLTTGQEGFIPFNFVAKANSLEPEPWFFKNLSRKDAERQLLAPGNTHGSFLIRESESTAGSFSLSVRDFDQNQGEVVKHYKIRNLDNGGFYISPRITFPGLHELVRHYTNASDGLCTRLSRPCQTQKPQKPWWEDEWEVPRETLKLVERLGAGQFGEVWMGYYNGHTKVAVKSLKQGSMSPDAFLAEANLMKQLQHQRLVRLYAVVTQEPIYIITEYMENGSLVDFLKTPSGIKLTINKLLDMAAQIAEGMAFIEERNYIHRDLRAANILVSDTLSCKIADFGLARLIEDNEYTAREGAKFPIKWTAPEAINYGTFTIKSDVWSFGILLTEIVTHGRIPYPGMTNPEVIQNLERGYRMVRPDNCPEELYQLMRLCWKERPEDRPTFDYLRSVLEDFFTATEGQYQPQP
Method in brief: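 Readout pairs a europium cryptate-labelled anti-phosphotyrosine antibody with XL665-streptavidin, measured by time-resolved fluorescence. IC50 derived from percent inhibition against untreated controls.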

T1 sequence (P07947 whole entry): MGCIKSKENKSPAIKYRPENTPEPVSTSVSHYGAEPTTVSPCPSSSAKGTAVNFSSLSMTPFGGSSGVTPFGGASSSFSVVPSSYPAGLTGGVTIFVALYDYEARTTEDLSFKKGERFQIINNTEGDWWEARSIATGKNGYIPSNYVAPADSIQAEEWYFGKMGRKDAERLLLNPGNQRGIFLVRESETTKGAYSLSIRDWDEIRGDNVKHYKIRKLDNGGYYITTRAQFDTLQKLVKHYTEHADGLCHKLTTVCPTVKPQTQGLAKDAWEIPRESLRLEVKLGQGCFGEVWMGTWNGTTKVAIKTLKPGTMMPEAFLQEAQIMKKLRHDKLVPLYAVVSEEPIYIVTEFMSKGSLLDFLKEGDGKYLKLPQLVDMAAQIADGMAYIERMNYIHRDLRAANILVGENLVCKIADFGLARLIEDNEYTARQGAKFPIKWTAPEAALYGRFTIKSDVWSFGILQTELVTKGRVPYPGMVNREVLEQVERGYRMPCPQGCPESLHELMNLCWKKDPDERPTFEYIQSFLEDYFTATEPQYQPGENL

| SMILES | IC50 [1] [nM] | IC50 [2] [nM] | IC50 [3] [nM] |
| --- | --- | --- | --- |
| Cc1cc(Oc2ccccc2F)ccc1-n1ncc(C(=O)c2cc3cc(C(C)C)c(NS(=O)(=O)CCCF)cc3[nH]2)c1N [Example 5-1-280, N-[2-[5-amino-1-[4-(2-fluorophenoxy)-2-methylphenyl]pyrazole-4-carbonyl]-5-propan-2-yl-1H-indol-6-yl]-3-fluoropropane-1-sulfonamide] | 1.8 | 80 | 31 |
| Cc1cc2cc(C(=O)c3cnn(-c4cnc(Oc5c(F)cccc5F)cc4C)c3N)[nH]c2cc1NS(=O)(=O)C1CCOC1 (stereo not drawn) [Example 5-1-281, N-[2-[5-amino-1-[6-(2,6-difluorophenoxy)-4-methylpyridin-3-yl]pyrazole-4-carbonyl]-5-methyl-1H-indol-6-yl]oxolane-3-sulfonamide] | 1.9 | 140 | 27 |
| Cc1cc(Oc2ccccc2F)ccc1-n1ncc(C(=O)c2cc3cc(C(C)C)c(NS(=O)(=O)C4CCOCC4)cc3[nH]2)c1N [Example 5-1-282, N-[2-[5-amino-1-[4-(2-fluorophenoxy)-2-methylphenyl]pyrazole-4-carbonyl]-5-propan-2-yl-1H-indol-6-yl]oxane-4-sulfonamide] | 4.8 | 200 | 120 |
| Cc1cc(-n2ncc(C(=O)c3cc4cc(OC5CCN(C6CS(=O)(=O)C6)CC5)c(-c5cncnc5)cc4[nH]3)c2N)ccc1Oc1ccccc1F [Example 5-1-283, [5-amino-1-[4-(2-fluorophenoxy)-3-methylphenyl]pyrazol-4-yl]-[5-[1-(1,1-dioxothietan-3-yl)piperidin-4-yl]oxy-6-pyrimidin-5-yl-1H-indol-2-yl]methanone] | 2 | 270 | 32 |
| Cc1cc(Oc2c(F)cccc2F)ncc1-n1ncc(C(=O)c2cc3cc(OC4CCN(C5CS(=O)(=O)C5)CC4)c(-c4cncnc4)cc3[nH]2)c1N [Example 5-1-284, [5-amino-1-[6-(2,6-difluorophenoxy)-4-methylpyridin-3-yl]pyrazol-4-yl]-[5-[1-(1,1-dioxothietan-3-yl)piperidin-4-yl]oxy-5-pyrimidin-5-yl-1H-indol-2-yl]methanone] | 1.1 | 11 | 6.9 |
| Cc1cc(-n2ncc(C(=O)c3cc4cc(OC5CCN(C6CCCC6)CC5)c(-c5ccccc5Cl)cc4[nH]3)c2N)ccc1Oc1ccccc1F [Example 5-1-285, [5-amino-1-[4-(2-fluorophenoxy)-3-methylphenyl]pyrazol-4-yl]-[6-(2-chlorophenyl)-5-(1-cyclopentylpiperidin-4-yl)oxy-1H-indol-2-yl]methanone] | 5.2 | 2300 | 500 |
| Cc1cc2cc(C(=O)c3cnn(-c4cnc(Oc5c(F)cccc5F)cc4C)c3N)[nH]c2cc1N1C(=O)NC(C)(C)C1=O [Example 5-1-286, 3-[2-[5-amino-1-[6-(2,6-difluorophenoxy)-4-methylpyridin-3-yl]pyrazole-4-carbonyl]-5-methyl-1H-indol-6-yl]-5,5-dimethylimidazolidine-2,4-dione] | 2.3 | 30 | 5.3 |
| Cc1cc(-n2ncc(C(=O)c3cc4cc(OC5CCN(C(C)C)CC5)c(N5C(=O)N[C@@H](C)C5=O)cc4[nH]3)c2N)ccc1Oc1ccccc1F [Example 5-1-287, (5S)-3-[2-[5-amino-1-[4-(2-fluorophenoxy)-3-methylphenyl]pyrazole-4-carbonyl]-5-(1-propan-2-ylpiperidin-4-yl)oxy-1H-indol-6-yl]-5-methylimidazolidine-2.4-dione] | 1 | 350 | 17 |
| Cc1cc(Oc2c(F)cccc2F)ncc1-n1ncc(C(=O)c2cc3cc(OC4CCN(C5CCCC5)CC4)c(-c4ccccc4Cl)cc3[nH]2)c1N [Example 5-1-288, [5-amino-1-[6-(2,6-difluorophenoxy)-4-methylpyridin-3-yl]pyrazol-4-yl]-[6-(2-chlorophenyl)-5-(1-cyclopentylpiperidin-4-yl)oxy-1H-indol-2-yl]methanone] | 1.9 | 52 | 17 |
| Cc1cc(Oc2c(F)cccc2F)ncc1-n1ncc(C(=O)c2cc3cc(OC4CCN(C5CS(=O)(=O)C5)CC4)c(-c4ccccc4Cl)cc3[nH]2)c1N [Example 5-1-290, [5-amino-1-[6-(2,6-difluorophenoxy)-4-methylpyridin-3-yl]pyrazol-4-yl]-[6-(2-chlorophenyl)-5-[1-(1,1-dioxothietan-3-yl)piperidin-4-yl]oxy-1H-indol-2-yl]methanone] | 2.1 | 46 | 30 |
| Cc1cc2cc(C(=O)c3cnn(-c4cnc(Oc5c(F)cccc5F)cc4C)c3N)[nH]c2cc1NS(=O)(=O)N1C2CCC1COC2 [Example 5-1-291, N-[2-[5-amino-1-[6-(2,6-difluorophenoxy)-4-methylpyridin-3-yl]pyrazole-4-carbonyl]-5-methyl-1H-indol-6-yl]-3-oxa-8-azabicyclo[3.2.1] octane-8-sulfonamide] | 10 | 420 | 130 |
| Cc1cc2cc(C(=O)c3cnn(-c4cnc(Oc5c(F)cccc5F)cc4C)c3N)[nH]c2cc1NS(=O)(=O)N1CCOC[C@H]1C [Example 5-1-292, (3R)-N-[2-[5-amino-1-[6-(2,6-difluorophenoxy)-4-methylpyridin-3-yl]pyrazole-4-carbonyl]-5-methyl-1H-indol-6-yl]-3-methylmorpholine-4-sulfonamide] | 19 | 630 | 88 |
| Cc1cc(-n2ncc(C(=O)c3cc4cc(OC5CCN(C(C)C)CC5)c(N5C(=O)N[C@@H](CO)C5=O)cc4[nH]3)c2N)ccc1Oc1ccccc1F [Example 5-1-293, (5S)-3-[2-[5-amino-1-[4-(2-fluorophenoxy)-3-methylphenyl]pyrazole-4-carbonyl]-5-(1-propan-2-ylpiperidin-4-yl)oxy-1H-indol-6-yl]-5-(hydroxymethyl)imidazolidine-2,4-dione] | 0.73 | 440 | 18 |
| Cc1cc(-n2ncc(C(=O)c3cc4cc(OC5CCN(C(C)C)CC5)c(N5C(=O)N[C@@H](Cc6ccccc6)C5=O)cc4[nH]3)c2N)ccc1Oc1ccccc1F [Example 5-1-294, (5S)-3-[2-[5-amino-1-[4-(2-fluorophenoxy)-3-methylphenyl]pyrazole-4-carbonyl]-5-(1-propan-2-ylpiperidin-4-yl)oxy-1H-indol-6-yl]-5-benzylimidazolidine-2,4-dione] | 2.2 | 960 | 110 |
| Cc1cc(-n2ncc(C(=O)c3cc4cc(OC5CCN(C(C)C)CC5)c(N5C(=O)N[C@@H](C(C)C)C5=O)cc4[nH]3)c2N)ccc1Oc1ccccc1F [Example 5-1-295, (5S)-3-[2-[5-amino-1-[4-(2-fluorophenoxy)-3-methylphenyl]pyrazole-4-carbonyl]-5-(1-propan-2-ylpiperidin-4-yl)oxy-1H-indol-6-yl]-5-propan-2-ylimidazolidine-2,4-dione] | 1.5 | 700 | 64 |
| Cc1cc(Oc2c(F)cccc2F)ncc1-n1ncc(C(=O)c2cc3cc(OCC(F)F)c(NS(=O)(=O)Cc4ccccc4)cc3[nH]2)c1N [Example 5-1-296, N-[2-[5-amino-1-[6-(2,6-difluorophenoxy)-4-methylpyridin-3-yl]pyrazole-4-carbonyl]-5-(2,2-difluoroethoxy)-1H-indol-6-yl]-1-phenylmethanesulfonamide] | 5.9 | 150 | 46 |
| Cc1cc(Oc2c(F)cccc2F)ncc1-n1ncc(C(=O)c2cc3cc(OCC(F)F)c(NS(=O)(=O)c4ccc(F)cc4)cc3[nH]2)c1N [Example 5-1-297, N-[2-[5-amino-1-[6-(2,6-difluorophenoxy)-4-methylpyridin-3-yl]pyrazole-4-carbonyl]-5-(2,2-difluoroethoxy)-1H-indol-6-yl]-4-fluorobenzenesulfonamide] | 8.5 | 580 | 46 |
| Cc1cc(Oc2c(F)cccc2F)ncc1-n1ncc(C(=O)c2cc3cc(OCC(F)F)c(NS(=O)(=O)c4ccc(Cl)cc4)cc3[nH]2)c1N [Example 5-1-298, N-[2-[5-amino-1-[6-(2,6-difluorophenoxy)-4-methylpyridin-3-yl]pyrazole-4-carbonyl]-5-(2,2-difluoroethoxy)-1H-indol-6-yl]-4-chlorobenzenesulfonamide] | 8.9 | 630 | 93 |
| COc1ccc(S(=O)(=O)Nc2cc3[nH]c(C(=O)c4cnn(-c5cnc(Oc6c(F)cccc6F)cc5C)c4N)cc3cc2OCC(F)F)cc1 [Example 5-1-299, N-[2-[5-amino-1-[6-(2,6-difluorophenoxy)-4-methylpyridin-3-yl]pyrazole-4-carbonyl]-5-(2,2-difluoroethoxy)-1H-indol-6-yl]-4-methoxybenzenesulfonamide] | 9.7 | 610 | 120 |
| Cc1ccc(S(=O)(=O)Nc2cc3[nH]c(C(=O)c4cnn(-c5cnc(Oc6c(F)cccc6F)cc5C)c4N)cc3cc2OCC(F)F)cc1 [Example 5-1-300, N-[2-[5-amino-1-[6-(2,6-difluorophenoxy)-4-methylpyridin-3-yl]pyrazole-4-carbonyl]-5-(2,2-difluoroethoxy)-1H-indol-6-yl]-4-methylbenzenesulfonamide] | 9.5 | 730 | 140 |
| COc1ccc(Cl)c(S(=O)(=O)Nc2cc3[nH]c(C(=O)c4cnn(-c5cnc(Oc6c(F)cccc6F)cc5C)c4N)cc3cc2OCC(F)F)c1 [Example 5-1-301, N-[2-[5-amino-1-[6-(2,6-difluorophenoxy)-4-methylpyridin-3-yl]pyrazole-4-carbonyl]-5-(2,2-difluoroethoxy)-1H-indol-6-yl]-2-chloro-5-methoxybenzenesulfonamide] | 6.5 | 610 | 170 |
